# Data from PubChem BioAssay (NCI).
#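 GI50 is the concentration that inhibits growth by half. Definition used: TGI = concentration required for complete inhibition of growth.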
# Legend:
# Experiment in all cases: inhibition of tumour cell growth, NCI panel, 384-well format
# [1] = tested on: UACC-62 melanoma
# [2] = tested on: HOP-92 NSCLC
# [3] = tested on: HCT-15 colon
# [4] = tested on: SF-268 CNS
# [5] = tested on: A498 renal
# [6] = tested on: SK-MEL-2 melanoma
# [7] = tested on: DU-145 prostate
# [8] = tested on: NCI-H322M lung
# [9] = tested on: SW-620 colon
# [10] = tested on: PC-3 prostate
# [11] = tested on: UO-31 renal
# [12] = tested on: MCF7 breast
# [13] = tested on: M14 melanoma
# [14] = tested on: SNB-75 CNS
# [15] = tested on: NCI-H23 lung
# [16] = tested on: KM12 colon
# [17] = tested on: A549 NSCLC
# [18] = tested on: COLO 205 colon
# [19] = tested on: SF-295 CNS
# [20] = tested on: SNB-19 CNS
# [21] = tested on: 786-0 renal
# [22] = tested on: MOLT-4 leukemia
# [23] = tested on: OVCAR-8 ovarian
# [24] = tested on: SK-OV-3 ovarian
# [25] = tested on: BT-549 breast
# [26] = tested on: HOP-62 NSCLC
# [27] = tested on: K-562 leukemia
# [28] = tested on: U251 glioblastoma
# [29] = tested on: OVCAR-5 ovarian
# [30] = tested on: EKVX NSCLC
# [31] = tested on: T-47D breast
# [32] = tested on: HCT-116 colon
# [33] = tested on: RXF 393 renal
# [34] = tested on: TK-10 renal
# [35] = tested on: UACC-257 melanoma
# [36] = tested on: HL-60(TB) leukemia
# [37] = tested on: SK-MEL-28 melanoma
# [38] = tested on: CAKI-1 renal
# [39] = tested on: ACHN renal
# [40] = tested on: SF-539 CNS
# [41] = tested on: IGROV1 ovarian
# [42] = tested on: OVCAR-4 ovarian
# [43] = tested on: SN12C renal
# [44] = tested on: MDA-MB-435 melanoma
# [45] = tested on: MDA-MB-231 breast
# [46] = tested on: SK-MEL-5 melanoma
# [47] = tested on: OVCAR-3 ovarian
# [48] = tested on: NCI-H522 lung
# [49] = tested on: MALME-3M melanoma
# [50] = tested on: SR leukemia
# [51] = tested on: MDA-MB-468 breast
# [52] = tested on: HT29 colon
# [53] = tested on: NCI-H226 lung
# [54] = tested on: HS 578T breast
compound,measurement,setting,value
O=C(NCCc1ccccc1)C(c1csc2ccccc12)N(C(=O)CCl)c1ccc(-c2cnco2)cc1 (configuration not stated),GI50,[1],18 nM
same,TGI,[1],34 nM
same,GI50,[2],16.9 nM
same,TGI,[2],31.1 nM
same,GI50,[3],77.6 nM
same,TGI,[3],216 nM
same,GI50,[4],70.3 nM
same,TGI,[4],198 nM
same,GI50,[5],104 nM
same,TGI,[5],222 nM
same,GI50,[6],29.7 nM
same,TGI,[6],102 nM
same,GI50,[7],62 nM
same,TGI,[7],1400 nM
same,GI50,[8],1680 nM
same,TGI,[8],3050 nM
same,GI50,[9],151 nM
same,TGI,[9],289 nM
same,GI50,[10],110 nM
same,TGI,[10],245 nM
same,GI50,[11],< 10 nM
same,GI50,[12],342 nM
same,TGI,[12],1480 nM
same,GI50,[13],138 nM
same,TGI,[13],288 nM
same,GI50,[14],19.1 nM
same,TGI,[14],38 nM
same,GI50,[15],16.5 nM
same,TGI,[15],35 nM
same,GI50,[16],483 nM
same,TGI,[16],1640 nM
same,GI50,[17],263 nM
same,TGI,[17],1580 nM
same,GI50,[18],1460 nM
same,TGI,[18],2780 nM
same,GI50,[19],131 nM
same,TGI,[19],261 nM
same,GI50,[20],1760 nM
same,TGI,[20],3160 nM
same,GI50,[21],16.5 nM
same,TGI,[21],33.2 nM
same,GI50,[22],20.2 nM
same,TGI,[22],36.4 nM
same,GI50,[23],19.6 nM
same,TGI,[23],56.6 nM
same,GI50,[24],197 nM
same,TGI,[24],394 nM
same,GI50,[25],37.6 nM
same,TGI,[25],131 nM
same,GI50,[26],23.7 nM
same,TGI,[26],68.4 nM
same,GI50,[27],78.4 nM
same,TGI,[27],212 nM
same,GI50,[28],101 nM
same,TGI,[28],239 nM
same,GI50,[29],349 nM
same,TGI,[29],1310 nM
same,GI50,[30],15.7 nM
same,TGI,[30],32.1 nM
same,GI50,[31],37.7 nM
same,TGI,[31],148 nM
same,GI50,[32],287 nM
same,TGI,[32],1030 nM
same,GI50,[33],10.8 nM
same,TGI,[33],23.2 nM
same,GI50,[34],18.6 nM
same,TGI,[34],36.4 nM
same,GI50,[35],121 nM
same,TGI,[35],412 nM
same,GI50,[36],21.4 nM
same,TGI,[36],36.4 nM
same,GI50,[37],1430 nM
same,TGI,[37],2740 nM
same,GI50,[38],< 10 nM
same,TGI,[38],19 nM
same,GI50,[39],16 nM
same,TGI,[39],30 nM
same,GI50,[40],16.5 nM
same,TGI,[40],34.9 nM
same,GI50,[41],18.2 nM
same,TGI,[41],34 nM
same,GI50,[42],16.8 nM
same,TGI,[42],30.8 nM
same,GI50,[43],1040 nM
same,TGI,[43],2220 nM
same,GI50,[44],432 nM
same,TGI,[44],1680 nM
same,GI50,[45],19.9 nM
same,TGI,[45],43.3 nM
same,GI50,[46],358 nM
same,TGI,[46],1680 nM
same,GI50,[47],145 nM
same,TGI,[47],314 nM
same,GI50,[48],< 10 nM
same,TGI,[48],15.1 nM
same,GI50,[49],56.4 nM
same,TGI,[49],180 nM
same,GI50,[50],17.6 nM
same,TGI,[50],31.9 nM
same,GI50,[51],21.5 nM
same,TGI,[51],88.1 nM
same,GI50,[52],127 nM
same,TGI,[52],273 nM
same,GI50,[53],193 nM
same,TGI,[53],724 nM
same,GI50,[54],113 nM
same,TGI,[54],238 nM
